Measured values from US10287251B2, “Pyrazole derivative or pharmaceutically acceptable salt thereof” (KISSEI PHARMACEUTICAL CO., LTD., priority 2015, dated 2019).

Biological target: T1, TRPM8 (Rattus norvegicus, UniProt Q8R455)
T1 construct: from tissue; host or cells: whole animal, female SD rats (in vivo)
Assay: Confirmation test of inhibitory effects on icilin-induced wet-dog shakes
Format: in vivo
Details: female SD rats, oral dose 0.3 mg/kg, icilin 1 mg/kg i.p. 1 hour after dosing, shakes counted for 5 minutes
Source text: Further, TRPM8 inhibitory activity can be evaluated by the efficacy inhibiting the wet-dog shake action which is induced by the administration of Icilin, TRPM8 agonist. Furthermore, an effect on overactive bladder (OAB) can be evaluated by an elongation of micturition interval against overactive bladder induced by acetic acid in accordance with a similar method described in J. Urol., 2001, 166, 1142.
Confirmation Test of Inhibitory Effects on Icilin-induced Wet-dog Shakes
Test compounds were dissolved in dimethylacetamide (wako), and 0.5% methylcellulose solution (wako) was added to make the solution or suspension containing 5% of dimethylacetatnide. At a dose of 0.3 to 10 mg/kg/5mL of test compounds were orally administered to female SD rats. After 1 hour, wet-dog shakes were induced by the intraperitoneal injection of icilin (1 mg/kg) which was dissolved in polyethylene glycol 400 (wako). From 5 minutes after the administration of icilin, wet-dog shakes were counted for 5 minutes. For control example, vehicle (a mixture of dimethylacetamide (wako): 0.5% methylcellulose (wako)=5:95) was administrated similarly, and the number of wet-dog shakes was counted in the same manner. A percent inhibition of wet-dog shakes by test compound was calculated from the following formula: [1-(test compound wet-dog shake count/vehicle wet-dog shake count)]×100.

T1 sequence (Q8R455 whole entry): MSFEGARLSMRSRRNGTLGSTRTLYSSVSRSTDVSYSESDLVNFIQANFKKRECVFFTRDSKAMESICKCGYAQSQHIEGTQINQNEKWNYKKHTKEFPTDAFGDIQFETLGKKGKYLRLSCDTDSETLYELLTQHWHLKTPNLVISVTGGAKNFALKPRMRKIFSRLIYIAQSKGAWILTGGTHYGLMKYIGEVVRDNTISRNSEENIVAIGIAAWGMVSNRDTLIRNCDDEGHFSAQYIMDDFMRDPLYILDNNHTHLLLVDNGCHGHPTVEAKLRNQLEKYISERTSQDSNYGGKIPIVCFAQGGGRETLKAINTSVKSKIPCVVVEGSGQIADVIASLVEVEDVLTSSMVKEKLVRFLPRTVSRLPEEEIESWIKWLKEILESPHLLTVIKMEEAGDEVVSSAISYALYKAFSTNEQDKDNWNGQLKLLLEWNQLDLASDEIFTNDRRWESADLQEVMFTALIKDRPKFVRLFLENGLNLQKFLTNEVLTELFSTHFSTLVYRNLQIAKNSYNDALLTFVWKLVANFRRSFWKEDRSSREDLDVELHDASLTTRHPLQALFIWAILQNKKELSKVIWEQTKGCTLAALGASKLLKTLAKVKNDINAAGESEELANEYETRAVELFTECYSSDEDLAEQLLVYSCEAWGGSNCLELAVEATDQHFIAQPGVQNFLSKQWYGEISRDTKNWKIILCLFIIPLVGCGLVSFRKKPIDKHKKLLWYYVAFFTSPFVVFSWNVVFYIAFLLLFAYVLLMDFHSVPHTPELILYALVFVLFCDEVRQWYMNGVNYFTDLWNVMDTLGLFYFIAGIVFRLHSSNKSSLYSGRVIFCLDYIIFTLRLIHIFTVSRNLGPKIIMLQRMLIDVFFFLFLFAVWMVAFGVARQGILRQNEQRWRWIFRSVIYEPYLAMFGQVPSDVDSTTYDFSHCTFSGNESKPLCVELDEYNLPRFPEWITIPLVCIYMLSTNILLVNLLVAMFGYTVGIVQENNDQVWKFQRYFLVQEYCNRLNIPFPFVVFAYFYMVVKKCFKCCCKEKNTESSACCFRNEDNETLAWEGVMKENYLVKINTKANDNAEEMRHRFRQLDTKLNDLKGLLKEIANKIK

| Compound | % inhibition of Wet-Dog Shake [%] |
| --- | --- |
| CO[C@H](CO)[C@@H](Cc1ccccn1)NC(=O)c1ccccc1-c1cc(-c2ccc(F)cc2)[nH]n1 [Example 43-13] | 90 |
| O=C(N[C@H](Cc1ncccc1F)[C@H](F)CO)c1cccc(F)c1-c1cc(-c2ccc(F)cc2)[nH]n1 [Example 43-41] | 54 |
| CO[C@H](CO)[C@@H](Cc1ccccn1)NC(=O)c1ccccc1-c1n[nH]c(-c2ccc(F)cc2)c1F [Example 43-5] | 98 |
| CO[C@H](CO)[C@@H](Cc1ncccc1F)NC(=O)c1cccc(F)c1-c1cc(-c2ccc(F)cc2)[nH]n1 [Example 27-20] | 56 |

Same assay, conditions: female SD rats, oral dose 1 mg/kg, icilin 1 mg/kg i.p. 1 hour after dosing, shakes counted for 5 minutes

| Compound | % inhibition of Wet-Dog Shake [%] |
| --- | --- |
| O=C(N[C@H](Cn1cccn1)[C@H](F)CO)c1cccc(F)c1-c1n[nH]c(-c2ccc(F)cc2)c1F [Example 43-39] | 81 |
| O=C(N[C@H](Cc1ccccn1)[C@H](F)CO)c1cccc(F)c1-c1cc(-c2ccc(F)cc2)[nH]n1 [Example 43-24] | 100 |
| O=C(N[C@@H]([C@H](O)CO)C(F)(F)c1ccccn1)c1cccc(F)c1-c1cc(-c2ccc(F)cc2)[nH]n1 [Example 1-229] | 56 |
| O=C(N[C@@H](CO)Cc1ccccn1)c1ccccc1-c1n[nH]c(-c2ccc(F)cc2)c1F [Example 1-97] | 50 |
| O=C(N[C@@H](CO)Cc1ncccc1F)c1cccc(F)c1-c1cc(-c2ccc(F)cc2)[nH]n1 [Example 1-167] | 65 |
| COC[C@@H](O)[C@@H](Cc1ccccn1)NC(=O)c1cccc(F)c1-c1cc(-c2ccc(F)cc2)[nH]n1 [Example 27-4] | 72 |
| O=C(N[C@@H](CCO)Cc1ccccn1)c1ccccc1-c1n[nH]c(-c2ccc(F)cc2)c1F [Example 1-173] | 85 |
| CC(CO)[C@@H](Cc1ccccn1)NC(=O)c1cccc(F)c1-c1cc(-c2ccc(F)cc2)[nH]n1 (some centres unmarked) [Example 1-164] | 38 |
| O=C(N[C@H](Cc1ncccn1)[C@H](F)CO)c1cccc(F)c1-c1n[nH]c(-c2ccc(F)cc2)c1F [Example 50-10] | 56 |

Same assay, conditions: female SD rats, oral dose 3 mg/kg, icilin 1 mg/kg i.p. 1 hour after dosing, shakes counted for 5 minutes

| Compound | % inhibition of Wet-Dog Shake [%] |
| --- | --- |
| O=C(N[C@@H](CCO)C(O)c1ccccn1)c1ccccc1-c1n[nH]c(-c2ccc(F)cc2)c1F (some centres unmarked) [Example 1-206] | 55 |
| O=C(N[C@H](Cc1ncccn1)[C@@H](O)CO)c1cccc(F)c1-c1cc(-c2ccc(F)cc2)[nH]n1 [Example 31-1, N-[(2R,3R)-3,4-Dihydroxy-1-(pyrimidin-2-yl)butan-2-yl]-3-fluoro-2-[5-(4-fluorophenyl)-1H-pyrazol-3-yl]benzamide] | 36 |
| O=C(N[C@H](Cc1ccccn1)[C@H](O)CO)c1ccccc1-c1cc(-c2ccc(F)cc2)[nH]n1 [Example 1-185] | 56 |
| COC(c1ccccn1)[C@H](CO)NC(=O)c1cccc(F)c1-c1cc(-c2ccc(F)cc2)[nH]n1 (some centres unmarked) [Example 43-6] | 49 |
| O=C(N[C@@H](CO)Cc1ccccn1)c1ccccc1-c1cc(-c2ccc(Cl)cc2)[nH]n1 [Example 1-59] | 46 |
| COC(c1ccccn1)[C@H](CCO)NC(=O)c1cccc(F)c1-c1cc(-c2ccc(F)cc2)[nH]n1 (some centres unmarked) [Example 43-9] | 89 |
| C[C@@](O)(CO)[C@@H](Cc1ccccn1)NC(=O)c1cccc(F)c1-c1cc(-c2ccc(F)cc2)[nH]n1 [Example 1-224] | 82 |
| O=C(N[C@@H](CO)Cc1ccccn1)c1cccc(OC(F)(F)F)c1-c1cc(-c2ccc(F)cc2)[nH]n1 [Example 1-64] | 69 |
| O=C(N[C@@H](CO)C(O)c1ccccn1)c1cccc(F)c1-c1cc(-c2ccc(F)cc2)[nH]n1 (single isomer, unassigned) [Example 54-1] | 70 |
| C[C@@](Cc1ccccn1)(NC(=O)c1cccc(F)c1-c1cc(-c2ccc(F)cc2)[nH]n1)C(N)=O [Example 24-7] | 56 |
| C[C@@](O)(CO)[C@@H](Cc1ccccn1)NC(=O)c1ccccc1-c1cc(-c2ccc(F)cc2)[nH]n1 [Example 1-228] | 97 |
| CC(C)(O)[C@@H](Cc1ccccn1)NC(=O)c1cccc(F)c1-c1cc(-c2ccc(Cl)cc2)[nH]n1 [Example 34-1HP, 2-[-5-(4-Chlorophenyl)-1H-pyrazol-3-yl]-3-fluoro-N-[(2R)-3-hydroxy-3-methyl-1-(pyridin-2-yl)butan-2-yl]benzamide] | 92 |
| O=C(N[C@@H](CCO)Cc1ncccn1)c1cccc(F)c1-c1cc(-c2ccc(F)cc2)[nH]n1 [Example 1-191] | 31 |
| COC[C@@H](O)[C@@H](Cc1ccccn1)NC(=O)c1cccc(Cl)c1-c1cc(-c2ccc(F)cc2)[nH]n1 [Example 27-5] | 52 |
| O=C(N[C@H](Cc1ncccn1)[C@@H](O)CF)c1cccc(F)c1-c1cc(-c2ccc(F)cc2)[nH]n1 [Example 50-2] | 89 |
| CO[C@H](CO)[C@@H](Cc1ccccn1)NC(=O)c1cccc(F)c1-c1cc(-c2ccc(F)cc2F)[nH]n1 [Example 43-34] | 100 |
| C[C@](O)(CO)[C@@H](Cc1ccccn1)NC(=O)c1cccc(F)c1-c1cc(-c2ccc(F)cc2)[nH]n1 [Example 1-217] | 75 |
| C[C@@](O)(CO)[C@@H](Cc1ccccn1)NC(=O)c1cccc(Cl)c1-c1cc(-c2ccc(F)cc2)[nH]n1 [Example 1-225] | 37 |

| Compound | % inhibition of Wet-Dog Shake [%] |
| --- | --- |
| CC(c1ccccn1)[C@@H](NC(=O)c1cccc(F)c1-c1n[nH]c(-c2ccc(F)cc2)c1F)[C@H](O)CO (some centres unmarked) [Example 54-17] | 42 |
| COC(c1ccccn1)[C@@H](NC(=O)c1cccc(F)c1-c1cc(-c2ccc(F)cc2)[nH]n1)[C@H](O)CO (some centres unmarked) [Example 54-19] | 68 |
| O=C(N[C@H](Cn1cccn1)[C@H](O)CO)c1cccc(F)c1-c1cc(-c2ccc(F)cc2)[nH]n1 [Example 1-226] | 53 |
| C[C@@](Cc1ccccc1)(NC(=O)c1ccccc1-c1cc(-c2ccc(F)cc2)[nH]n1)C(N)=O [Example 24-3] | 46 |
| O=C(N[C@H](Cc1ccccn1)[C@H](O)CO)c1cccc(Cl)c1-c1cc(-c2ccc(F)cc2)[nH]n1 [Example 1-169] | 34 |
| COC(c1ccccn1)[C@H](CO)NC(=O)c1cccc(F)c1-c1n[nH]c(-c2ccc(F)cc2)c1F (some centres unmarked) [Example 43-16] | 97 |
| O=C(N[C@H](Cc1ccccn1)C[C@H](O)CO)c1cccc(F)c1-c1cc(-c2ccc(Cl)cc2)[nH]n1 [Example 54-7] | 41 |
| O=C(N[C@@H](CCO)C(O)c1ccccn1)c1cccc(F)c1-c1cc(-c2ccc(F)cc2)[nH]n1 (some centres unmarked) [Example 54-3] | 62 |
| O=C(N[C@@H](CCO)Cc1ccccn1)c1ccccc1-c1cc(-c2ccc(F)cc2)[nH]n1 [Example 1-208] | 100 |
| COC(c1ccccn1)[C@H](CO)NC(=O)c1cccc(Cl)c1-c1cc(-c2ccc(F)cc2)[nH]n1 (some centres unmarked) [Example 43-12] | 92 |
| O=C(N[C@@H](CO)C(F)c1ccccn1)c1cccc(F)c1-c1cc(-c2ccc(F)cc2)[nH]n1 (some centres unmarked) [Example 1-231] | 88 |
| Cn1ccnc1C[C@H](CO)NC(=O)c1cccc(F)c1-c1cc(-c2ccc(F)cc2)[nH]n1 [Example 1-183] | 36 |
| C[C@](O)(CO)[C@@H](Cc1ccccn1)NC(=O)c1cccc(Cl)c1-c1cc(-c2ccc(F)cc2)[nH]n1 [Example 1-218] | 40 |
| O=C(N[C@@H](CO)Cc1ncccn1)c1cccc(F)c1-c1cc(-c2ccc(F)cc2)[nH]n1 [Example 1-174] | 60 |
| CC(c1ccccn1)[C@H](CO)NC(=O)c1cccc(F)c1-c1cc(-c2ccc(F)cc2)[nH]n1 (some centres unmarked) [Example 1-200] | 91 |
| CO[C@@H](CO)[C@@H](Cn1cccn1)NC(=O)c1cccc(F)c1-c1n[nH]c(-c2ccc(F)cc2)c1F [Example 27-24] | 99 |
| O=C(N[C@@H](CCO)Cc1ccccn1)c1cccc(OC(F)(F)F)c1-c1cc(-c2ccc(F)cc2)[nH]n1 [Example 1-134] | 49 |

Same assay, conditions: female SD rats, oral dose 10 mg/kg, icilin 1 mg/kg i.p. 1 hour after dosing, shakes counted for 5 minutes

| Compound | % inhibition of Wet-Dog Shake [%] |
| --- | --- |
| O=C(NC(CCO)Cc1ccccc1)c1ccccc1-c1cc(-c2ccc(F)cc2)[nH]n1 (centres unmarked) [Example 1-76] | 72 |
| O=C(N[C@@H](CO)Cc1ccccn1)c1cccc(F)c1-c1cc(-c2ccccc2)[nH]n1 [Example 1-69] | 93 |
